What was measured:
Format in all cases: functional
Spodoptera littoralis [1] = test: Antifeedant activity against final stage larvae of Spodoptera littoralis at 1 mg/l after 8 to 24 hr
Spodoptera littoralis [2] = test: Antifeedant activity against final stage larvae of Spodoptera littoralis at 0.1 mg/l after 8 to 24 hr
Spodoptera littoralis [3] = test: Antifeedant activity against final stage larvae of Spodoptera littoralis at 10 mg/l after 8 to 24 hr
Spodoptera littoralis [4] = test: Antifeedant activity against final stage larvae of Spodoptera littoralis at 100 mg/l after 8 to 24 hr

Structure (SMILES)	AFI (Spodoptera littoralis [1]) [%]	AFI (Spodoptera littoralis [2]) [%]	AFI (Spodoptera littoralis [3]) [%]	AFI (Spodoptera littoralis [4]) [%]
CC[C@H](C)C(=O)O[C@H]1[C@H](O)C[C@@H]2[C@@](C)([C@@H]3C[C@H]4CCO[C@H]4O3)[C@H](C)C[C@H](OC(C)=O)[C@@]2(COC(C)=O)[C@@]12CO2 [14,15-DIHYDROAJUGAPITIN]	92.6	65.9	100	100
CO[C@H]1C[C@@H]2C[C@@H]([C@@]3(C)[C@H](C)C[C@H](OC(C)=O)[C@]4(COC(C)=O)[C@@H]3C[C@@H](O)[C@H](OC(=O)C(C)C)[C@]43CO3)O[C@@H]2O1 [HATIVENE A]	63.3	37.3	100	100
CO[C@@H]1C[C@@H]2C[C@@H]([C@@]3(C)[C@H](C)C[C@H](OC(C)=O)[C@]4(COC(C)=O)[C@@H]3C[C@@H](O)[C@H](OC(=O)C(C)C)[C@]43CO3)O[C@@H]2O1 [HATIVENE B]	69	41.2	100	100
CO[C@@H]1C[C@@H]2C[C@@H]([C@@]3(C)[C@H](C)C[C@H](OC(C)=O)[C@]4(COC(C)=O)[C@@H]3C[C@H](O)[C@H](OC(=O)C(C)C)[C@]43CO3)O[C@@H]2O1 [HATIVENE C]	63.3	42.7	100	100
CC[C@@H](C)C(=O)O[C@H]1[C@H](O)C[C@@H]2[C@@](C)([C@@H]3C[C@H]4C[C@@H](OC)O[C@H]4O3)[C@H](C)C[C@H](OC(C)=O)[C@@]2(COC(C)=O)[C@@]12CO2 [LUPULIN A]	74.5	45	100	100
